For test [1], the target named is Human sodium/glucose co-transporter type 2 (SGLT2) (Homo sapiens (Human), UniProt P31639). Kind of test: In vitro human SGLT2 inhibition assay (14C-AMG uptake). Type of test: cell-based. The arrangement: key to SGLT2 (human SGLT2 IC50): ***: a value less than 0.01 μM; **: a value less than 0.1 μM; *: a value less than 1 μM; —: a value not measured or exceeding μM. The note with it: HEK293 cells expressing human HA-SGLT2, 14C-AMG uptake. The method in brief:
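Uptake of 14C-AMG (100 nCi) was followed in a stable HEK293 HA-SGLT2 line over 1-2 h at 37 °C with or without compound. Buffer: 140 mM NaCl, 10 mM HEPES, 5 mM Tris, 1 mg/mL BSA, pH 7.3. Readout was scintillation counting after washing.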

Test [2] addresses Human sodium/glucose co-transporter type 1 (SGLT1) (Homo sapiens (Human), UniProt P13866). In words: In vitro human SGLT1 inhibition assay (14C-AMG uptake). The arrangement: key to SGLT1 (human SGLT1 IC50): ***: a value less than 0.01 μM; **: a value less than 0.1 μM; *: a value less than 1 μM; —: a value not measured or exceeding μM. Type of test: cell-based. The settings on record: HEK293 cells expressing human HA-SGLT1, 14C-AMG uptake. The method in brief:
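Uptake of 14C-AMG (100 nCi) was measured by scintillation counting after 1–2 h at 37 °C, 5% CO2, with or without compound. The buffer was pH 7.3 with 140 mM NaCl, 1 mM CaCl2, 1 mM MgCl2 and 1 mg/mL BSA. Cells were a stable HEK293 line carrying HA-SGLT1 (human), plated overnight at 30,000 per well.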

This note sets out measurements from patent publication US9688710B2, “Inhibitors of sodium glucose cotransporter 1” (LEXICON PHARMACEUTICALS, INC., priority 2012, dated 2017).

Where only a bound is given, the exact number is not on record here.

Sequence of Human sodium/glucose co-transporter type 1 (SGLT1) (P13866 whole entry): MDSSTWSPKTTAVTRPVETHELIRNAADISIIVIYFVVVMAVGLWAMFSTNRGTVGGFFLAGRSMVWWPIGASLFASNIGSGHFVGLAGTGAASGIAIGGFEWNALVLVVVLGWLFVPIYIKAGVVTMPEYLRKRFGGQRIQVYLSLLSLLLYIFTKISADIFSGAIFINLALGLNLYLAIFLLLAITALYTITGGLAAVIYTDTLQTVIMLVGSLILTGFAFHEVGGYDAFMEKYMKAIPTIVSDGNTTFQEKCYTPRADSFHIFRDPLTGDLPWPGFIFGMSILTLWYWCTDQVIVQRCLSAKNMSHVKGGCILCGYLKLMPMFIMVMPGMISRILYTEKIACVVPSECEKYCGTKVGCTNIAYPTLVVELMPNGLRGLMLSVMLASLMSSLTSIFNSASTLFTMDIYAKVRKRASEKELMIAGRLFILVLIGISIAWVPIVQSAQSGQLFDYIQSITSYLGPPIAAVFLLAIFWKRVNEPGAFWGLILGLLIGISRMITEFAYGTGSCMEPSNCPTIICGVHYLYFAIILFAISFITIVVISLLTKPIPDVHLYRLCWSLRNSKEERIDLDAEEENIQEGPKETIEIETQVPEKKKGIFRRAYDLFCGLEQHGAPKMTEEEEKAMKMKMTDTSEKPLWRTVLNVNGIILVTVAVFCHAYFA
Sequence of Human sodium/glucose co-transporter type 2 (SGLT2) (P31639 whole entry): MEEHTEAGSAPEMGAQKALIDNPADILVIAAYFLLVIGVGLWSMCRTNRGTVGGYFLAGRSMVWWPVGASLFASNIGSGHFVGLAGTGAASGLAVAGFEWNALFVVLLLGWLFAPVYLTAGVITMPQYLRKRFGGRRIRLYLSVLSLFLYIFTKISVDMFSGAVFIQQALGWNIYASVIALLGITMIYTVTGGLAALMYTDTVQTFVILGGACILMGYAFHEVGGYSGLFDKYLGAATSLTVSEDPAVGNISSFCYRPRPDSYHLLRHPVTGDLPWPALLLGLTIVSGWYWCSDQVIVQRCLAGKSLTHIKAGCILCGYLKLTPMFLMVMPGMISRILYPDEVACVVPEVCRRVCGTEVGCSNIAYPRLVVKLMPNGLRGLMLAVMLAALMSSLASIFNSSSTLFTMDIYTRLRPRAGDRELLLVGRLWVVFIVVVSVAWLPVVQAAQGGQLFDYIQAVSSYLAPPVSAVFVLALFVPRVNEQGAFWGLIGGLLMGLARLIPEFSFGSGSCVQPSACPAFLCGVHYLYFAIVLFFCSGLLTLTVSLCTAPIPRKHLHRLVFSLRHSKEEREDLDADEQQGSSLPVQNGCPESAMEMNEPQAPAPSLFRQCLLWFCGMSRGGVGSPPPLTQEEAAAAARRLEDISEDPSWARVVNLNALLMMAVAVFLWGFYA

`CS[C@H]1O[C@@H](c2ccc(C)c(Cc3ccc(CCCC(=O)NC4(C(=O)N5CCN(C)CC5)CCOCC4)cc3)c2)[C@H](O)[C@@H](O)[C@@H]1O` [4-(4-(2-methyl-5-((2S,3R,4R,5S,6R)-3,4,5-trihydroxy-6-(methylthio)tetrahydro-2H-pyran-2-yl)benzyl)phenyl)-N-(4-(4-methylpiperazine-1-carbonyl)tetrahydro-2H-pyran-4-yl)butanamide]: the half-maximal inhibitory concentration (IC50) in test [1] and in test [2] was less than 10 nM throughout.

The compound `CS[C@H]1O[C@@H](c2ccc(C)c(Cc3ccc(CCCC#N)cc3)c2)[C@H](O)[C@@H](O)[C@@H]1O` [4-(4-(2-methyl-5-((2S,3R,4R,5S,6R)-3,4,5-trihydroxy-6-(methylthio)tetrahydro-2H-pyran-2-yl)benzyl)phenyl)butanenitrile] displayed a half-inhibitory concentration (IC50) in test [1] of less than 100 nM. For the same compound, the “SGLT1 (human SGLT1 IC50)” value in test [2] is recorded as “—”.

As to `CS[C@H]1O[C@@H](c2ccc(C)c(Cc3ccc(CCCC(=O)O)cc3)c2)[C@H](O)[C@@H](O)[C@@H]1O` [4-(4-(2-methyl-5-((2S,3R,4R,5S,6R)-3,4,5-trihydroxy-6-(methylthio)tetrahydro-2H-pyran-2-yl)benzyl)phenyl)butanoic acid], the IC50 was less than 10 nM in test [1] and less than 100 nM in test [2].

In the case of `CS[C@H]1OC(c2ccc(C)c(Cc3ccc(OCCNC(=O)N4CCN(C)CC4)cc3)c2)[C@H](O)[C@@H](O)[C@@H]1O` (stereo partly drawn) [4-methyl-N-(2-(4-(2-methyl-5-((3R,4R,5S,6R)-3,4,5-trihydroxy-6-(methylthio)tetrahydro-2H-pyran-2-yl)benzyl)phenoxy)ethyl)piperazine-1-carboxamide], the IC50 in test [1] and in test [2] was less than 10 nM each time.

For `CS[C@H]1O[C@@H](c2ccc(C)c(Cc3ccc(CCCCNC(=O)N4CCN(C)CC4)cc3)c2)[C@H](O)[C@@H](O)[C@@H]1O` [4-methyl-N-(4-(4-(2-methyl-5-((2S,3R,4R,5S,6R)-3,4,5-trihydroxy-6-(methylthio)tetrahydro-2H-pyran-2-yl)benzyl)phenyl)butyl)piperazine-1-carboxamide], the IC50 in test [1] was less than 10 nM; in test [2], less than 100 nM.

Turning to `CS[C@H]1O[C@@H](c2ccc(C)c(Cc3ccc(CCCCC(=O)N4CCN(C)CC4)cc3)c2)[C@H](O)[C@@H](O)[C@@H]1O` [5-(4-(2-methyl-5-((2S,3R,4R,5S,6R)-3,4,5-trihydroxy-6-(methylthio)tetrahydro-2H-pyran-2-yl)benzyl)phenyl)-1-(4-methylpiperazin-1-yl)pentan-1-one], the IC50 in test [1] was less than 10 nM; in test [2], less than 100 nM.

`CS[C@H]1O[C@@H](c2ccc(C)c(Cc3ccc(OCC(O)CO)cc3)c2)[C@H](O)[C@@H](O)[C@@H]1O` (stereo partly drawn) [(2S,3R,4R,5S,6R)-2-(3-(4-(2,3-dihydroxypropoxy)benzyl)-4-methylphenyl)-6-(methylthio)tetrahydro-2H-pyran-3,4,5-triol]: the half-inhibitory concentration (IC50) in test [1] and in test [2] was less than 100 nM throughout.

In the case of `COCCOCCOc1ccc(Cc2cc([C@@H]3O[C@H](SC)[C@@H](O)[C@H](O)[C@H]3O)ccc2C)cc1` [(2S,3R,4R,5S,6R)-2-(3-(4-(2-(2-methoxyethoxy)ethoxy)benzyl)-4-methylphenyl)-6-(methylthio)tetrahydro-2H-pyran-3,4,5-triol], the half-maximal inhibitory concentration (IC50) in test [1] and in test [2] was less than 10 nM each time.

With `CS[C@H]1O[C@@H](c2ccc(C)c(Cc3ccc(OCCNC(C)(C)CO)cc3)c2)[C@H](O)[C@@H](O)[C@@H]1O` [(2S,3R,4R,5S,6R)-2-(3-(4-(2-((1-hydroxy-2-methylpropan-2-yl)amino)ethoxy)benzyl)-4-methylphenyl)-6-(methylthio)tetrahydro-2H-pyran-3,4,5-triol], the IC50 in test [1] and in test [2] was less than 10 nM throughout.

For `CS[C@H]1O[C@@H](c2ccc(Cl)c(Cc3ccc(OCCN)cc3)c2)[C@H](O)[C@@H](O)[C@@H]1O` [(2S,3R,4R,5S,6R)-2-(3-(4-(2-aminoethoxy)benzyl)-4-chlorophenyl-6-(methylthio)tetrahydro-2H-pyran-3,4,5-triol], the 50% inhibitory concentration (IC50) in test [1] is less than 10 nM; in test [2], less than 100 nM.

Consider `CS[C@H]1O[C@@H](c2ccc(C)c(Cc3ccc(OCCCNCC(C)(C)CN(C)C)cc3)c2)[C@H](O)[C@@H](O)[C@@H]1O` [(2S,3R,4R,5S,6R)-2-(3-(4-(3-((3-(dimethylamino)-2,2-dimethylpropyl)amino)propoxy)benzyl)-4-methylphenyl)-6-(methylthio)tetrahydro-2H-pyran-3,4,5-triol], for which the concentration for half-maximal inhibition (IC50) in test [1] and in test [2] was less than 10 nM in each case.

As for `CS[C@H]1O[C@@H](c2ccc(C)c(Cc3ccc(CCCCNC(CO)(CO)CO)cc3)c2)[C@H](O)[C@@H](O)[C@@H]1O` [(2S,3R,4R,5S,6R)-2-(3-(4-(4-((1,3-dihydroxy-2-(hydroxymethyl)propan-2-yl)amino)butyl)benzyl)-4-methylphenyl)-6-(methylthio)tetrahydro-2H-pyran-3,4,5-triol], the IC50 in test [1] and in test [2] was less than 10 nM throughout.

On to `CS[C@H]1O[C@@H](c2ccc(C)c(Cc3ccc(CCCCNC(C)(C)CO)cc3)c2)[C@H](O)[C@@H](O)[C@@H]1O` [(2S,3R,4R,5S,6R)-2-(3-(4-(4-((1-hydroxy-2-methylpropan-2-yl)amino)butyl)benzyl)-4-methylphenyl)-6-(methylthio)tetrahydro-2H-pyran-3,4,5-triol], for which the IC50 was less than 10 nM in test [1] and less than 100 nM in test [2].

Regarding `CS[C@H]1O[C@@H](c2ccc(C)c(Cc3ccc(CCCCNCC(O)CO)cc3)c2)[C@H](O)[C@@H](O)[C@@H]1O` (stereo partly drawn) [(2S,3R,4R,5S,6R)-2-(3-(4-(4-((2,3-dihydroxypropyl)amino)butyl)benzyl)-4-methylphenyl)-6-(methylthio)tetrahydro-2H-pyran-3,4,5-triol], the IC50 is less than 10 nM in test [1] and less than 100 nM in test [2].

Take `CS[C@H]1O[C@@H](c2ccc(C)c(Cc3ccc(CCCCN(CC(O)CO)CC(O)CO)cc3)c2)[C@H](O)[C@@H](O)[C@@H]1O` (stereo partly drawn) [(2S,3R,4R,5S,6R)-2-(3-(4-(4-(bis(2,3-dihydroxypropyl)amino)butyl)benzyl)-4-methylphenyl)-6-(methylthio)tetrahydro-2H-pyran-3,4,5-triol]: the IC50 in test [1] and in test [2] was less than 10 nM in each case.

Take `CCN(CC)CCCCc1ccc(Cc2cc([C@@H]3O[C@H](SC)[C@@H](O)[C@H](O)[C@H]3O)ccc2C)cc1` [(2S,3R,4R,5S,6R)-2-(3-(4-(4-(diethylamino)butyl)benzyl)-4-methylphenyl)-6-(methylthio)tetrahydro-2H-pyran-3,4,5-triol]: the IC50 in test [1] and in test [2] was less than 10 nM each time.

As for `CS[C@H]1O[C@@H](c2ccc(C)c(Cc3ccc(CCCCN)cc3)c2)[C@H](O)[C@@H](O)[C@@H]1O` [(2S,3R,4R,5S,6R)-2-(3-(4-(4-aminobutyl)benzyl)-4-methylphenyl)-6-(methylthio)tetrahydro-2H-pyran-3,4,5-triol], the half-inhibitory concentration (IC50) in test [1] and in test [2] was less than 10 nM in each case.

Turning to `CS[C@H]1O[C@@H](c2ccc(C)c(Cc3ccc(CCCCCNCc4ccccc4)cc3)c2)[C@H](O)[C@@H](O)[C@@H]1O` [(2S,3R,4R,5S,6R)-2-(3-(4-(5-(benzylamino)pentyl)benzyl)-4-methylphenyl)-6-(methylthio)tetrahydro-2H-pyran-3,4,5-triol], the figures for the IC50 in test [1] and in test [2] were less than 10 nM and less than 100 nM, respectively.

Take `CS[C@H]1O[C@@H](c2ccc(C)c(Cc3ccc(CCCCCN(C[C@H](O)CO)C[C@H](O)CO)cc3)c2)[C@H](O)[C@@H](O)[C@@H]1O` [(2S,3R,4R,5S,6R)-2-(3-(4-(5-(bis((S)-2,3-dihydroxypropyl)amino)pentyl)benzyl)-4-methylphenyl)-6-(methylthio)tetrahydro-2H-pyran-3,4,5-triol]: the results for the IC50 in test [1] and in test [2] were less than 10 nM and less than 100 nM, respectively.

Consider `CS[C@H]1O[C@@H](c2ccc(C)c(Cc3ccc(CCCCCN)cc3)c2)[C@H](O)[C@@H](O)[C@@H]1O` [(2S,3R,4R,5S,6R)-2-(3-(4-(5-aminopentyl)benzyl)-4-methylphenyl)-6-(methylthio)tetrahydro-2H-pyran-3,4,5-triol], for which the IC50 is less than 10 nM in test [1] and less than 100 nM in test [2].

Consider `CS[C@H]1O[C@@H](c2ccc(C)c(Cc3ccc(Cl)cc3)c2)[C@H](O)[C@@H](O)[C@@H]1O` [(2S,3R,4R,5S,6R)-2-(3-(4-chlorobenzyl)-4-methylphenyl)-6-(methylthio)tetrahydro-2H-pyran-3,4,5-triol], for which the IC50 in test [1] is less than 10 nM; in test [2], less than 100 nM.

For the compound `CCOc1ccc(Cc2cc([C@@H]3O[C@H](SC)[C@@H](O)[C@H](O)[C@H]3O)ccc2C)cc1` [(2S,3R,4R,5S,6R)-2-(3-(4-ethoxybenzyl)-4-methylphenyl)-6-(methylthio)tetrahydro-2H-pyran-3,4,5-triol], the IC50 in test [1] is less than 10 nM; in test [2], less than 100 nM.

For the compound `COc1ccc(Cc2cc([C@@H]3O[C@H](SC)[C@@H](O)[C@H](O)[C@H]3O)ccc2OC(F)(F)F)cc1` [(2S,3R,4R,5S,6R)-2-(3-(4-methoxybenzyl)-4-(trifluoromethoxy)phenyl)-6-(methylthio)tetrahydro-2H-pyran-3,4,5-triol], in test [1], the “SGLT2 (human SGLT2 IC50)” value is on record as “—”. In test [2], the “SGLT1 (human SGLT1 IC50)” value was “—”.

The term IC50 denotes the point on the concentration scale where inhibition reaches its midpoint.
